# Reference: patent US4356306A, “Water-soluble derivatives of 6,6'-methylene-bis-(2,2,4-trimethyl-1,2-dihydroquinoline)” (Material Vegyipari Szovetkezet, priority 1979, dated 1982)
# Legend:
# [1] = known radioprotective compounds; cited from earlier work
# [2] = inhibitor activity on the polymerization of acrylic acid at 60° C.; assay type: biochemical; settings: control 16 hours
# Procedure: The efficiency of the compounds of the invention was investigated in vitro by measuring the inhibitor activity of the compounds on the polymerization of acrylic acid at 60° C., and comparing this activity with that of 3.5-di-tert.butyl-4-hydroxy-toluene (BHT) and L-ascorbic acid. The radical binding activity of the compounds was studied.
# The times required to polymerization are given in the next Table.
# mice = assay: protection against hepatotoxic dimethylsulfoxide; assay type: in vivo; settings: for death after dimethylsulfoxide / protective activity against dimethylsulfoxide: 100 mg. disulfonic acid or 60 mg. disulfonamide in water and dimethylsulfoxide, i.p. or s.c.
# Procedure: The surrounding carcinogens play an important role in the formation of malignant tumors. These carcinogens contain free radicals or they become carcinogenic in the living organism. […] As the radical reactions may be controlled by the antioxidants, they may be employed as therapeutic and as prophylactic agents as well. […] A hepatotoxic substance had to be administered which was simultaneously carcinogenic. Dimethylsulfoxide was suitable. 0.3 ml. of dimethylsulfoxide/mice was administered i.p. or s.c. in an aqueous solution and as a result 7 animals died within 10 days out of 10 test animals.
# cancer of the bladder = settings: large amount of Vitamin-C; cited from earlier work
# CFLP mice = assay: protection against LD90 radiodose after i.p. administration; assay type: in vivo; settings: 1000 mg./kg. i.p., preferably 2 hours before LD90 radiodose
# Procedure: The unexpected activity of the new compounds has been observed during a total body irradiation. As test animals CFLP mice of an average weight of 20 to 22 g. were used, each group consisted of 8 male and 8 female animals. The control group was irradiated with 7 Gy (total body irradiation) and the test groups were treated per os for 10 days with the new water-soluble antioxidant of the invention at a daily dose of 0.5 g./kg. The treatment was followed by 7 Gy total body irradiation. There was no significant difference between the various water-soluble antioxidants and as a result within 30 days two animals of the control group were alive and an average of 12 animals survived in the treated group. A significant result was obtained with X^2 probe, p<0.001 and the Dose Modification Factor (DMF), which is the number of dead animals in the control group related to the number of dead animals in the treated group, amounted to 3.5 at LD80. A dose of 1000 mg./kg. bodyweight of MTDQ disulfonic acid Na was administered i.p. preferably 2 hours before irradiation with an LD90 radiodose and a 100% protective activity was obtained. […] It is known that the radioprotective compounds protect the healthy tissue cells better than the malignant tumor cells.
# plasma concentration = assay type: in vivo
# From the text: (§1) The concentration of the found MTDQ was the same as if it had not been the compound of the invention that had been administered, but rather MTDQ. […] The radioprotective activity of the water-soluble antioxidant is presumably due to the fact that the radiation energy is predominantly concentrated on the antioxidant and further that in addition to its membrane stabilizing activity the radicals and peroxides formed in the course of the irradiation, are inactivated by the antioxidant, in the well oxygenated cells.
# [3] = detection of MTDQ in the liver; assay type: in vivo; settings: after administration of the compound of the invention
# From the text: as §1
# malignant tumor tissues = settings: cited from earlier work
smiles,measurement,setting,value
"Br.Br.N=C(N)SCCN [AET, S-2-aminoethyl-isothiuronium-dihydrobromide]",duration of effect after administration,[1],extremely limited
same,effective doses as radioprotective compound,[1],effective only at subtoxic doses
"Cc1cc(C(C)(C)C)c(O)c(C(C)(C)C)c1 [BHT, 3.5-di-tert.butyl-4-hydroxy-toluene]",times required to polymerization,[2]; 0.02%,120 h
C[S+](C)[O-] [Dimethylsulfoxide],animals died within 10 days,"mice; 0.3 ml./mice i.p. or s.c., out of 10 test animals",7 animals
O=C1O[C@H]([C@@H](O)CO)C(O)=C1O [L-ascorbic acid],times required to polymerization,[2]; 0.02%,18 h
same,cancer of the bladder by beta-naphthyl-amine,cancer of the bladder,does not cause cancer of the bladder
"CC1(C)C=C(CS(=O)(=O)O)c2cc(Cc3ccc4c(c3)C(CS(=O)(=O)O)=CC(C)(C)N4)ccc2N1 [MTDQ disulfonic acid Na, 6,6'-methylene-bis(2,2-dimethyl-4-methanesulfonic acid Na-1,2-dihydroquinoline)]",protective activity,CFLP mice,100%
"CC1=CC(C)(C)Nc2ccc(Cc3ccc4c(c3)C(C)=CC(C)(C)N4)cc21 [MTDQ, 6,6'-methylene-bis(2,2,4-trimethyl-1,2-dihydroquinoline)]",concentration of found MTDQ compared with administration of MTDQ itself,plasma concentration; after administration of the compound of the invention,the same
same,MTDQ in the plasma as metabolite (desulfonation),plasma concentration; after administration of the new compounds,found in the plasma
same,MTDQ in the liver,[3],could be detected in the liver
same,radiosensibility of malignant tumor tissues,malignant tumor tissues; in vivo,increase the radiosensibility of malignant tumor tissues
same,reduction of radiodose for the same effect,malignant tumor tissues; radiosensitive tumors,at least 50%
CC1(C)C=C(CS(=O)(=O)O)c2cc(Cc3ccc4c(c3)C(CS(=O)(=O)O)=CC(C)(C)N4)ccc2N1 [MTDQ-disulfonic acid],times required to polymerization,[2]; concentration not given,400 h
same,death after dimethylsulfoxide,mice,no death was observed
same,protective activity against dimethylsulfoxide,mice,100%
"NCCCNCCSP(=O)(O)O [WR 2721, S-2-(3-aminopropyl)-aminoethyl-phosphorothioic acid]",duration of effect after administration,[1],extremely limited
same,effective doses as radioprotective compound,[1],effective only at subtoxic doses
"NCCS [cysteamine, beta-mercapto-ethyl-amine]",duration of effect after administration,[1],extremely limited
same,effective doses as radioprotective compound,[1],effective only at subtoxic doses
N[C@@H](CS)C(=O)O [cysteine],duration of effect after administration,[1],extremely limited
same,effective doses as radioprotective compound,[1],effective only at subtoxic doses
CC1(C)C=C(CS(N)(=O)=O)c2cc(Cc3ccc4c(c3)C(CS(N)(=O)=O)=CC(C)(C)N4)ccc2N1 [disulfonamide],death after dimethylsulfoxide,mice,no death was observed
same,protective activity against dimethylsulfoxide,mice,100%
